The NIST ThermoML archive (doi:10.1021/je060271a)
Several values for one entry are separate records, joined by “and”; a condition that tells them apart may be missing. Equal entries are not always repeated.

Conditions: 303.15 K, Liquid, Vibrating tube method

CCCCCC(=O)OCC(COC(=O)CCCCC)(COC(=O)CCCCC)COC(=O)CCCCC [pentaerythritol tetrahexanoate]
Conditions | mass density
8586.4 kPa | 993.8 kg/m3
8609.7 kPa | 993.8 kg/m3
8636.8 kPa | 993.8 kg/m3
8659.9 kPa | 993.9 kg/m3
8683.2 kPa | 993.9 kg/m3
8710.9 kPa | 993.9 kg/m3
8734.7 kPa | 993.9 kg/m3
8758.2 kPa | 993.9 kg/m3
8782.3 kPa | 993.9 kg/m3
8806.3 kPa | 994 kg/m3
8834.9 kPa | 994 kg/m3
8858 kPa | 993.9 kg/m3
8886.3 kPa | 994 kg/m3
8910.4 kPa | 994 kg/m3
8934.4 kPa | 994 kg/m3
8958.2 kPa | 994 kg/m3
8987 kPa | 993.9 kg/m3
9010.8 kPa | 994.1 kg/m3
9035.1 kPa | 994.1 kg/m3
9064.4 kPa | 994.1 kg/m3
9088.5 kPa | 994.1 kg/m3
9118.9 kPa | 994.2 kg/m3
9143 kPa | 994.1 kg/m3
9168.2 kPa | 994.3 kg/m3
9192.8 kPa | 994.1 kg/m3
9222.6 kPa | 994.1 kg/m3
9247.5 kPa | 994.2 kg/m3
9272.5 kPa | 994.3 kg/m3
9301.8 kPa | 994.2 kg/m3
9327.6 kPa | 994.2 kg/m3
9352.8 kPa | 994.4 kg/m3
9378.4 kPa | 994.3 kg/m3
9409.1 kPa | 994.3 kg/m3
9434.6 kPa | 994.3 kg/m3
9461.4 kPa | 994.4 kg/m3
9492.2 kPa | 994.3 kg/m3
9517.5 kPa | 994.3 kg/m3
9543.4 kPa | 994.4 kg/m3
9574.4 kPa | 994.4 kg/m3
9600.4 kPa | 994.5 kg/m3
9627 kPa | 994.4 kg/m3
9658 kPa | 994.6 kg/m3
9684.2 kPa | 994.6 kg/m3
9710.4 kPa | 994.5 kg/m3
9742.2 kPa | 994.4 kg/m3
9768.8 kPa | 994.5 kg/m3
9796.2 kPa | 994.6 kg/m3
9828.9 kPa | 994.6 kg/m3
9855.9 kPa | 994.7 kg/m3
9882.5 kPa | 994.6 kg/m3
9909.3 kPa | 994.6 kg/m3
9941.9 kPa | 994.6 kg/m3
9968.9 kPa | 994.7 kg/m3
9997 kPa | 994.7 kg/m3
10030 kPa | 994.7 kg/m3
10057 kPa | 994.7 kg/m3
10085 kPa | 994.7 kg/m3
10118 kPa | 994.7 kg/m3
10146 kPa | 994.8 kg/m3
10174 kPa | 994.8 kg/m3
10202 kPa | 994.8 kg/m3
10236 kPa | 994.8 kg/m3
10264 kPa | 994.8 kg/m3
10297 kPa | 994.8 kg/m3
10325 kPa | 994.9 kg/m3
10354 kPa | 994.8 kg/m3
10383 kPa | 994.8 kg/m3
10417 kPa | 994.9 kg/m3
10445 kPa | 994.9 kg/m3
10474 kPa | 995 kg/m3
10508 kPa | 994.9 kg/m3
10537 kPa | 994.9 kg/m3
10573 kPa | 995.1 kg/m3
11095 kPa | 995.5 kg/m3
11124 kPa | 995.3 kg/m3
11154 kPa | 995.4 kg/m3
11188 kPa | 995.3 kg/m3
11217 kPa | 995.4 kg/m3
11246 kPa | 995.5 kg/m3
11280 kPa | 995.5 kg/m3
11309 kPa | 995.4 kg/m3
11338 kPa | 995.5 kg/m3
11372 kPa | 995.5 kg/m3
11399 kPa | 995.6 kg/m3
11427 kPa | 995.6 kg/m3
11649 kPa | 995.6 kg/m3
11671 kPa | 995.7 kg/m3
11694 kPa | 995.7 kg/m3
11712 kPa | 995.7 kg/m3
11728 kPa | 995.6 kg/m3
11744 kPa | 995.7 kg/m3
11761 kPa | 995.7 kg/m3
11774 kPa | 995.7 kg/m3
11800 kPa | 995.8 kg/m3
11835 kPa | 995.8 kg/m3
11840 kPa | 995.9 kg/m3
11846 kPa | 995.8 kg/m3
11853 kPa | 995.9 kg/m3
11865 kPa | 995.8 kg/m3
11879 kPa | 995.9 kg/m3
11887 kPa | 995.8 kg/m3
11892 kPa | 995.9 kg/m3
11903 kPa | 995.8 kg/m3
11916 kPa | 995.8 kg/m3
11919 kPa | 995.9 kg/m3
11920 kPa | 995.9 kg/m3 and 995.8 kg/m3 and 995.7 kg/m3
11921 kPa | 995.9 kg/m3
11922 kPa | 995.8 kg/m3 and 995.9 kg/m3
11923 kPa | 995.8 kg/m3
12035 kPa | 995.9 kg/m3
12053 kPa | 996 kg/m3
12071 kPa | 995.9 kg/m3
12092 kPa | 995.9 kg/m3
12111 kPa | 995.9 kg/m3
12129 kPa | 996 kg/m3
12151 kPa | 996.1 kg/m3
12169 kPa | 996 kg/m3
12188 kPa | 995.9 kg/m3
12212 kPa | 996 kg/m3
12226 kPa | 996.1 kg/m3
12248 kPa | 996 kg/m3
12267 kPa | 996.1 kg/m3
12285 kPa | 996.1 kg/m3
12308 kPa | 996.1 kg/m3
12326 kPa | 996.1 kg/m3
12348 kPa | 996.1 kg/m3
12367 kPa | 996.1 kg/m3
12386 kPa | 996.2 kg/m3
12409 kPa | 996.2 kg/m3
12428 kPa | 996.2 kg/m3
12448 kPa | 996.1 kg/m3
12468 kPa | 996.2 kg/m3
12490 kPa | 996.3 kg/m3
12509 kPa | 996.3 kg/m3
12529 kPa | 996.2 kg/m3
12552 kPa | 996.3 kg/m3
12571 kPa | 996.1 kg/m3
12591 kPa | 996.2 kg/m3
12610 kPa | 996.3 kg/m3
12634 kPa | 996.3 kg/m3
12654 kPa | 996.2 kg/m3
12673 kPa | 996.3 kg/m3
12697 kPa | 996.4 kg/m3
12716 kPa | 996.4 kg/m3
12736 kPa | 996.4 kg/m3
